Laboratory results as given in US20090227534A1, “Pharmaceutical Composition Comprising the Combination of a Ketorolac Salt and Vitamins of the-B-Complex for the Treatment of Neuralgia” (LABORATORIOS SENOSITAN S.A. DE C.V., priority 2006, published 2009).
Like-named read-outs stand apart in the source and are kept apart here.

Legend:
rat paw = test: Antinociceptive effect, heat-stimulation model in the rat paw (carrageen); type: in vivo; settings: oral, measured for 6 hours
Protocol: Methodology: We worked with five groups of 8 rats each. The antinociceptive effect was evaluated through the heat-stimulation model in the rat paw. Used substances: saline solution, carrageen to produce the nociceptive effect (pain), ketorolac, riboflavin and B-complex (vitamins B1, B6 and B12). For the doses-response curve, each group received a ketorolac dose so that 0.32, 1, 1.8, 3.2 y 10 mg/kg of weight were administrated orally. The antinociceptive effect was measured for 6 hours. Latency time curves were plot on a graph (the time rat takes before moving […] its paw to avoid the pain) as a function of time. Saline solution was used as a negative control solution (establishing the base level) and carrageen to produce a sensitizing effect (inflammation). […] The following were administered: Riboflavin (alone), Ketorolac (alone), B-Complex (alone), Ketorolac and Riboflavin combination, and Ketorolac and B-Complex combination. Isobolograms were made in order to evaluate the interaction between ketorolac and B-complex using the ED25 values (effective doses) obtained from the dose-response curves for the administered drugs alone or combined.

rats = test: Antinociception, formalin test (1% 50 μl), second phase; type: in vivo; settings: rat, phase two; for Emax: read-out: maximum effect (decrease in number of shakes)
Protocol: We worked with five groups of 8 rats each. The antinociception effect was evaluated via the formalin test (1% 50 μl); rats are placed in an observation chamber made of acrylic material. The nociceptive behavior was evaluated based on the number of shakes at the injected paw.
Used substances: saline solution, formalin (produces nociceptive effect), ketorolac, riboflavin and B-complex (vitamins B1, B6 and B12).
For the dose-response curve, each group received a 0.32-10 mg/kg of ketorolac dose, 6.25-100 mg/kg of riboflavin, 56-316 mg/kg of B-complex, ketorolac-B-complex combination and ketorolac-riboflavin combinations.
The antinociceptive effect was measured for sixty minutes. […] Acute or initial phase from 0 to 10 minutes and tonic phase from 15 to 60 minutes.
Curves for the number of shakes against time were plot and the area under the curve was obtained (AUC) for the second phase, using the trapezoids method.
The dose-response curve for each composition was obtained as the percentage of the maximum possible effect.
The antinociceptive effect of ketorolac, B-complex in ratios of 100:100:1 of B1, B6 and B12 (respectively), riboflavin, ketorolac-B-complex combination, and ketorolac-riboflavin combination were evaluated.
A saline solution was used as a negative control solution (base level).
Administration: riboflavin (alone), ketorolac (alone), B-complex (alone), ketorolac-riboflavin combination, and ketorolac-B-complex combination.

[1] = Solubility of ketorolac in water; type: physicochemical
Description: (§1) Clinical studies have shown that ketorolac is a strong and effective analgesic. […] Ketorolac is one of the few non-steroidal anti-inflammatory drugs approved for parenteral administration. However, when administered in combination with other substances, it usually presents stability problems.

[2] = cited from earlier work; for time to reach maximum plasma concentration (tmax): healthy humans
[3] = Laboratory stability tests: ketorolac with acid solutions, direct combination with B-complex, light exposure; type: physicochemical
Protocol: as §1
Currently, there are no individual pharmaceutical forms for the parenteral administration of ketorolac at 15 mg/ml and B-complex, as described in this invention.
The above situation makes impossible to simply combine ketorolac and B-complex, making it necessary to research and develop a system that provides appropriate stability characteristics for parenteral administration.

**Q.** With `Cc1cc2nc3c(=O)[nH]c(=O)nc-3n(C[C@H](O)[C@H](O)[C@H](O)CO)c2cc1C` [riboflavin, Riboflavin] as the molecule, how does the “antinociceptive effect (area under the latency curve as a function of time), dose-response” value (rat paw) read?
**A.** dose-dependant response

**Q.** What about the ED25 (rats) of the same molecule?
**A.** 39.8 ± 7.1 mg/kg

**Q.** And the Emax (rats)?
**A.** 33%

**Q.** With `O=C(c1ccccc1)c1ccc2n1CCC2C(=O)O` (racemic) [ketorolac, (±)-5(benzoyl)-2,3-dihydro-1N-pyrrolizine-1-carboxylic acid tris hydroxy methyl amino methane] as the molecule, how does the “antinociceptive effect (area under the latency curve as a function of time), dose-response” value (rat paw) read?
**A.** dose-dependant response

**Q.** What about the ED25 (rats) of the same molecule?
**A.** 2.1 ± 0.5 mg/kg

**Q.** And the Emax (rats)?
**A.** 36%

**Q.** And the solubility in water [1]?
**A.** highly soluble

**Q.** What about the “time to reach maximum plasma concentration (tmax)” value ([2]; intramuscular) of the same molecule?
**A.** 46 min

**Q.** And the “time to reach maximum plasma concentration (tmax)” value ([2]; oral)?
**A.** 53 min

**Q.** What about the excreted in feces ([2]; humans) of the same molecule?
**A.** 6%

**Q.** And the excreted in urine ([2]; humans)?
**A.** 92%

**Q.** And the “stability when acid solutions are present” value [3]?
**A.** decreases significantly
